Where “and” joins values, the source holds several entries; their conditions need not be identical. Equal values may be shown once.
Tests used:
[1] = test system: Drosophila melanogaster transheterozygous larvae; assay: Genotoxicity (single treatment), Drosophila wing spot test (SMART); format: in vivo; set-up: key to Mann-Whitney Test: n.s.: non-significant; settings: single treatment; for Mann-Whitney Test: vs negative control
Method: (§1) The principles and basic procedures for the Drosophila wing spot test have been described by Graf et al., and in previous works of our group. Two strains of flies carrying wing genetic markers on the left arm of chromosome 3: multiple wing […] used. The transheterozygous larvae were obtained by crossing […] (Third Multiple 3), Bd^S(Beaded […]) virgin females. Hybrid eggs derived from crossing optimally fertile flies were collected over an 8 h period. […] Concurrent negative controls with the solvent alone (water) and positive controls with hydrogen peroxide (120 mM) were also run. Anti-genotoxicity tests were carried out by mixing the mutagen (hydrogen peroxide, 120 mM) with the compounds solution. After emergence, adult flies were collected from the treatment vials and stored in 70% ethanol. The wings of the flies were removed under a stereomicroscope using a pair of entomological tweezers, similar number of males and females-wings were mounted in Faure's solution on microscope slides and inspected, under 400× magnification, for the presence of clones of cells. The mutant clones were classified into three types: […] The appearance of twin spots indicated the recombinogenic activity of the chemotherapeutic agent (Figure 1). The frequencies of spots per fly of treated series were compared with its corresponding negative control series (water) to analyze Somatic Mutation and Recombination Test (SMART) data. For maximum power, statistical analyses were done exclusively for the total number of spots recovered. The non-parametric U test of Mann, Whitney and Wilcoxon was used to avoid weak positive and inconclusive results on SMART and to achieve a well-defined statistical diagnosis whether a given treatment should be regarded as genotoxic or not. The inhibition percentages (IP) were calculated using the total spots per wing with the following formula [16, 36]: IP = ((Genotoxine alone - Genotoxine plus active compound)/Genotoxine alone) × 100

[2] = test system: Drosophila melanogaster transheterozygous larvae; assay: Anti-genotoxicity (combined treatment with hydrogen peroxide 120 mM), Drosophila wing spot test (SMART); format: in vivo; set-up: key to Mann-Whitney Test: n.s.: non-significant; settings: combined treatment with H2O2 120 mM; for Mann-Whitney Test: vs negative control
Method: as §1

HL60 cells [3] = assay: Cytotoxicity assay, trypan blue exclusion; format: cell-based, human; settings: HL60, 72 h, trypan blue exclusion, at the tested concentrations
Method: Therefore, all the cells that exclude the dye are viable. Non-viable cells stained purple-violet, whereas viable ones remained unstained. Trypan blue was added to cell cultures at a 1:1 ratio, and 20 μL of cell suspension was loaded into a Neubauer chamber. The cells were counted under an inverted microscope at 100× magnification. […] Curves are expressed as survival percentage with respect to controls growing at 72 h. All data represent the average of at least three independent experiments.

HL60 cells [4] = assay: Nucleosomal DNA fragmentation assay; format: cell-based, human; settings: HL60, 5 h, same concentrations as in the cytotoxicity assay, agarose gel
Method: The HL60 tumoral cell line was used with the aim of analyse the apoptotic induction. […] A non-treated cells control was included for each experiment. For DNA fragmentation, treated cells were collected, were centrifuged at 4000 rpm for 5 min and washed with PBS. […] The agarose gels were run at 50 V for 90 min in TBE (Tris/Borate/EDTA) buffer and then observed and photographed under UV light. For Annexin V-PI test, Annexin V Apoptosis Detection Kit ([…] Biotech S.L., Cordoba, Spain) was used. Briefly, cells were resuspended in 100 μL of Binding buffer solution 1× and subsequently, 5 μL AnnexinV-FITC (Fluorescein isothiocyanate) and 10 μL propidium iodide were added, and samples were incubated for 10 min at room temperature in darkness, and flow cytometry (Beckman Coulter Inc., Brea, CA, USA) was then used to analyze the rate of apoptosis.

SP6.5 cell line = test system: SP6.5 cell line; set-up: method as in PMID 24223611; settings: SP6.5 human uveal melanoma cell line; read-out: IC50 (cell viability); cited from earlier work
C918 cell line = test system: C918 cell line; set-up: method as in PMID 24223611; settings: C918 human uveal melanoma cell line; read-out: IC50 (cell viability); cited from earlier work
[5] = test system: normal ocular cells (uveal melanocytes, retinal pigment epithelial cells, and scleral fibroblasts); set-up: method as in PMID 24223611; settings: highest level tested 300 μM; cited from earlier work

CC1=C(/C=C/C(C)=C/C=C/C(C)=C/C=C/C=C(C)/C=C/C=C(C)/C=C/C2=C(C)C[C@@H](O)CC2(C)C)C(C)(C)C[C@H](O)C1 [Zeaxanthin, zeaxanthin]
Large Spots (>2 Cells) m = 5 ([1]; 0.0001 μM): 0.00 (0) clones per wing
Small Spots (1–2 Cells) m = 2 ([1]; 0.0001 μM): 0.05 (2) clones per wing
Total Spots m = 2 ([1]; 0.0001 μM): 0.05 (2) clones per wing
Twin Spots m = 5 ([1]; 0.0001 μM): 0.00 (0) clones per wing
Mann-Whitney Test ([1]; 0.0001 μM): n.s.
Large Spots (>2 Cells) m = 5 ([1]; 0.105 μM): 0.03 (1) clones per wing
Small Spots (1–2 Cells) m = 2 ([1]; 0.105 μM): 0.10 (4) clones per wing
Total Spots m = 2 ([1]; 0.105 μM): 0.15 clones per wing and 0.15 (6) clones per wing
Twin Spots m = 5 ([1]; 0.105 μM): 0.03 (1) clones per wing
Mann-Whitney Test ([1]; 0.105 μM): n.s.
Large Spots (>2 Cells) m = 5 ([2]; 0.0001 μM): 0.00 (0) clones per wing
Small Spots (1–2 Cells) m = 2 ([2]; 0.0001 μM): 0.03 (1) clones per wing
Total Spots m = 2 ([2]; 0.0001 μM): 0.05 (2) clones per wing
Twin Spots m = 5 ([2]; 0.0001 μM): 0.03 (1) clones per wing
Mann-Whitney Test ([2]; 0.0001 μM): n.s.
Large Spots (>2 Cells) m = 5 ([2]; 0.105 μM): 0.00 (0) clones per wing
Small Spots (1–2 Cells) m = 2 ([2]; 0.105 μM): 0.07 (2) clones per wing
Total Spots m = 2 ([2]; 0.105 μM): 0.07 (2) clones per wing
Twin Spots m = 5 ([2]; 0.105 μM): 0.00 (0) clones per wing
Mann-Whitney Test ([2]; 0.105 μM): n.s.
cytotoxic effect (tumoral viability) (HL60 cells [3]): slight cytotoxic activities
internucleosomal DNA fragmentation ladder pattern (HL60 cells [4]): did not show any internucleosomal fragmentation ladder pattern
IC50 (SP6.5 cell line): 40.8 µM
IC50 (C918 cell line): 28.7 µM
effect on viability of normal ocular cells [5]: did not affect the viability
